Key:
[1] = test system: humans; settings: human, cited from earlier work
[2] = Metabolite profiling in rat plasma after SC RE104; settings: 0- to 10-hour pooled plasma, SC 10, 25, or 75 mg/kg RE104
Description: Metabolite profiling and identification was performed using rat, dog, and nonhuman primate plasma samples after a single SC injection of RE104 (QPS, LLC, Newark, DE, USA).
Blood samples were centrifuged to obtain plasma. Plasma samples for rat and dog studies were pooled across time points to 1 sample per dose and sex separately; plasma samples from monkeys were pooled to generate 1 combined sample.
Metabolite profiling and identificationFor experiments performed in rats, blood samples were collected before dose and at 15 minutes, 30 minutes, and 1, 2, 4, 6, and 10 hours after dose. Blood samples from dogs were collected before dose and at 5 minutes, 30 minutes, and 1, 2, 4, 8, 12, and 24 hours after dose. Monkey blood samples were collected before dose and at 5 minutes, 15 minutes, 30 minutes, and 1, 1.5, 2, 4, 8, and 12 hours after dose. […]
The percent of RE104 and its metabolites in relation to the total area of compound-related material was obtained by integration of the extracted ion chromatogram peaks on the full-scan mass-chromatograms. The percent of peak area for each component relative to the total peak area was determined by using the following formula: Component % peak area=(peak area of component ×100%/total integrated peak area of compound-related material).

[3] = Plasma protein binding, animal plasma; assay type: in vitro ADME; settings: animal plasma proteins
[4] = in PBS; cited from earlier work
[5] = test system: primary human hepatocytes; assay: Metabolite profiling in plated human hepatocytes; settings: 1 μM, pooled plated human hepatocytes
Description: The formation of metabolites was monitored at 0, 4, 8, and 24 hours, respectively. […] Samples for positive and negative controls were determined at 0, 8, and 24 hours, respectively. RE104 and its metabolites were identified and profiled using ultrahigh-performance liquid chromatography (Supplemental Methods).
The quenched samples were pipetting mixed, harvested, and stored at −70° C. or lower until liquid chromatography tandem mass spectrometry analysis. […] The plated human hepatocyte incubation samples were frozen at ≤−70° C. or lower immediately and thawed to room temperature before sample processing. A 500-μL aliquot of each sample was transferred to matrix tubes (1.4 mL), followed by the addition of 500-μL mixed solvent acetonitrile:methanol:for mic acid (50:50:0.1, v/v/v). The resulting mixtures were vortex mixed for 2 minutes and centrifuged at 3000 rpm for 10 minutes. The supernatants from the triplicate incubations were pooled to generate the pooled samples (1.5 mL/each) for the LC-MS analysis.
For all metabolite identification and profiling experiments, RE104 and its metabolites were identified and profiled by UHPLC in a Shimadzu Nexeran™ UHPLC system coupled with a high-resolution mass spectrometer SCIEX 6600 Triple TOF®. Mass spectrometry analysis was carried out by using an electrospray ionization source operating in positive ion mode with full-scan TOF MS and MS/MS modes. […]

[6] = Phase 1 FIH study: plasma pharmacokinetics (LC-MS/MS); assay type: in vivo; settings: female, plasma, human; for half-life: read-out: t1/2, mean (converted)
Description: (§1) The study was a double-blind, randomized, placebo-controlled Phase 1 single ascending dose study in up to 6 cohorts in healthy females. Eligibility was assessed during a screening period of up to 28 days prior to enrollment. For the treatment period, subjects were admitted to the clinical research unit (CRU) one day prior to the dosing (Day −1). On Day 1, all subjects will received the assigned SC dose of RE104 HCl or placebo in a fed state (after domiciling overnight and consuming a planned evening meal on Day −1 and morning meal on Day 1 while at the CRU). Subjects were allowed to select snacks from a planned menu from 4 hours following dosing. Subjects were discharged from the clinic on Day 2 (−24 hours post-dose) after all required study procedures were completed and if deemed medically fit. Subjects returned to the clinic on Day 10 (±2 days) for a follow up visit.
The concentrations of RE104 and isoprocin in plasma were determined using a validated Liquid chromatography tandem mass spectrometry (LC-MS/MS) assay.

[7] = Plasma protein binding, human plasma; assay type: in vitro ADME; settings: human plasma proteins, 1 to 20 PM; read-out: plasma protein binding (bound)
[8] = Metabolite profiling in monkey plasma after SC RE104; assay type: in vivo, cynomolgus monkey; settings: pooled plasma 0 to 12 hours post dose, SC 0.5 mg/kg RE104
Description: Blood samples were centrifuged to obtain plasma.

[9] = test system: healthy females; assay: Phase 1 FIH study: modified Drug Effect Questionnaire (DEQ-High); assay type: in vivo, human; settings: plasma concentration below 40 ng/mL
Description: as §1
The Drug Effect Questionnaire (DEQ) Feel/High is widely used in studies of acute subjective response to a variety of substances, to assess two key aspects of subjective experience: (1) the strength of substance effects and (2) desirability of substance effects (Morean et al., 2013). The modified DEQ assesses the extent to which subjects (1) feel any substance effect(s) and (2) feel high. This version of the DEQ includes the following items: “Do you feel a drug effect right now?” (FEEL); “Are you high right now?” (HIGH). FIG. 2 sets out the modified DEQ that was used.
The modified DEQ was used as an 11-point numeric rating scale (0-10) administered by a qualified staff member. The subjects were asked to verbally respond to indicate how strongly they feel the drug effect and how high they feel on the scale of 0-10 after being administered the study drug (Kollltveit et al., 2020).

[10] = in vivo; settings: male, beagle, dog, plasma, po, 5 mg/kg
Description: Two consecutive doses were separated by z7 days. Plasma samples were analyzed using an LC-MS/MS method (lower limit of quantification of 1.00 ng/mL for both analytes).
Pharmacokinetic parameters were calculated using Phoenix WinNonlin, version 6.3 or 8.2 (Certara, Princeton, NJ, USA).
For dog PK assessments, approximately 0.5 mL of blood was collected via superficial vein before dose and at 5 (for IV and SC injections only), 15, and 30 minutes and 1, 2, 4, 8, 16, 24, 48, and 72 hours post dose into tubes containing K2EDTA with 10 mM Dichlorvos as the anticoagulant and stabilizer, respectively.

[11] = GLP 14-day extended single SC dose toxicity study in rats; settings: Sprague Dawley, rat, plasma, sc, 10 mg/kg
Description: In a GLP 14-day extended single SC dose toxicity study in rats, doses of 0 (PBS), 10, 25 and 75 mg/kg were evaluated. Animals were necropsied on Study Day 2 and Day 14 (also referred to as Recovery Day 13) post-dosing.
A non-GLP dose range study was performed in the dog in order to determine an MTD. Single SC doses of 7.5, 15 and 20 mg/kg were evaluated.

[12] = molecular target: human recombinant 5-HT2B receptors (Homo sapiens, UniProt P41595); assay: 5-HT2B agonist radioligand binding assay ([125I]DOI)
Sequence of human recombinant 5-HT2B receptors (P41595 whole entry): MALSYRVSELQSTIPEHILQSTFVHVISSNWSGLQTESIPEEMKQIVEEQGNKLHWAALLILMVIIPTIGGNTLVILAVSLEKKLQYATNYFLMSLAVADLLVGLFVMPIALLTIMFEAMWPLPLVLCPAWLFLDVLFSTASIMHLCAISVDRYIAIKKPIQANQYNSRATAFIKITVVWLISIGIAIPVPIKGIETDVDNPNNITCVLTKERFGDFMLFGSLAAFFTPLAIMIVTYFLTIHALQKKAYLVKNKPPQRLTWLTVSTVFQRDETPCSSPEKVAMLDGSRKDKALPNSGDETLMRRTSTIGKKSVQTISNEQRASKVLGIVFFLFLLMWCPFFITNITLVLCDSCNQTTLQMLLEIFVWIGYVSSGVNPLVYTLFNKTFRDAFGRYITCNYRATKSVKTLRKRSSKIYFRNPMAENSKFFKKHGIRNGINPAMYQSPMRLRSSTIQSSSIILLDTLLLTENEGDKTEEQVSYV
Description: (§2) Increasing concentrations of RE104 were incubated with 0.2 nM [^125I]DOI in CHO cell cultures expressing human recombinant 5-HT2B receptors.
(§3) Radioligand concentration was measured by scintillation counting; compound binding was calculated as percent inhibition of the binding of [^125I]DOI. In agonist activity assays, test concentrations of RE104 were incubated with HEK-293 cells expressing human recombinant 5-HT2A receptors; IP1 production was detected using homogeneous time-resolved fluorescence. Activation was calculated as a percentage of the response to the positive control (10 μM 5-HT).
(§4) Inhibition constants were calculated by using the Cheng-Prusoff equation Ki=IC50/(1+L/KD), where L=radioligand concentration and KD=radioligand affinity for the receptor (determined with a Scatchard plot). In the functional activity assay test concentrations of RE104 were 10 nM, 30 nM, 100 nM, 300 nM, 1 μM, 3 μM, 10 μM, and 30 μM. EC50 and IC50 values were determined by nonlinear regression analysis of the concentration-response curves generated with mean replicate values using Hill equation curve fitting.

[13] = GLP 14-day extended single SC dose toxicity study in dogs; settings: beagle, dog, plasma, sc, 8 mg/kg
[14] = molecular target: human recombinant 5-HT2A receptors (Homo sapiens, UniProt P28223); assay: 5-HT2A agonist radioligand binding assay ([125I]DOI)
Sequence of human recombinant 5-HT2A receptors (P28223 whole entry): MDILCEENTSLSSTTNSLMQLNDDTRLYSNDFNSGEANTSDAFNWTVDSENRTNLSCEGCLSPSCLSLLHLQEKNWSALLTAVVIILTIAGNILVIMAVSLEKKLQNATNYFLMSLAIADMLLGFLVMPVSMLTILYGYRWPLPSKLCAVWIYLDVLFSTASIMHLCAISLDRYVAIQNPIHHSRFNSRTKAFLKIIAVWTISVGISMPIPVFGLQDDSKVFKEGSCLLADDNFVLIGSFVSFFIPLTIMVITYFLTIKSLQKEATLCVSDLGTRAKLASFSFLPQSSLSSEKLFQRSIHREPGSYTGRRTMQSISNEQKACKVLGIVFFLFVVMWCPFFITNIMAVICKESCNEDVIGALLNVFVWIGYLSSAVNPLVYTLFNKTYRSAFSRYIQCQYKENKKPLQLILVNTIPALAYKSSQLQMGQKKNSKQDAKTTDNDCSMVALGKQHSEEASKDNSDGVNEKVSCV
Description: as §2, §3, §4

[15] = in vivo; settings: for half-life: male, cynomolgus monkey, plasma; for mean terminal half-life: monkey
Description: Two male cynomolgus monkeys were administered 3 treatments in a crossover study design (Calvert Laboratories, Inc, Scott Township, PA; QPS, LLC, Newark, DE, USA). In treatment 1, RE104 was administered as an IV bolus dose at 1 mg/kg. In treatment 2, RE104 was administered as an SC injection at 0.5 mg/kg, and in treatment 3, RE104 was administered PO at 5 mg/kg, with all dosing formulations prepared in phosphate buffered saline.

[16] = Rat PK after single IV or SC RE104 HCl 2 mg/kg (Example 1)

Structure (SMILES): CC(C)N(CCc1c[nH]c2cccc(O)c12)C(C)C [4-OH-DiPT, 3-(2-diisopropylamino-ethyl)-1H-indol-4-ol]
- onset of effect (mild physical awareness) ([1]; 10 mg orally (Shulgin)): ≤ 1 h
- recovery ([1]; 20 mg oral dose (Shulgin)): ≤ 3 h
- onset of effect ([1]; 20 mg orally (Shulgin)): ≤ 15 min
- share of total metabolites in plasma [2]: > 67%
- fraction unbound [3]: 0.4 to 0.7
- solubility [4]: < 2000 µg/mL
- metabolites formed [5]: primarily producing O-glucuronide and negligible amounts of other metabolites
- Cmax ([6]; RE104 dose 5.5 mg SC (n = 6)): 18 ng/mL
- Tmax ([6]; RE104 dose 5.5 mg SC (n = 6)): 1.12 h
- half-life ([6]; RE104 dose 5.5 mg SC (n = 6)): 3.42 h
- Cmax ([6]; RE104 dose 11 mg SC (n = 6)): 60 ng/mL
- Tmax ([6]; RE104 dose 11 mg SC (n = 6)): 1.21 h
- half-life ([6]; RE104 dose 11 mg SC (n = 6)): 3.55 h
- Cmax ([6]; RE104 dose 22 mg SC (n = 6)): 77 ng/mL
- Tmax ([6]; RE104 dose 22 mg SC (n = 6)): 1.42 h
- half-life ([6]; RE104 dose 22 mg SC (n = 6)): 3.27 h
- Cmax ([6]; RE104 dose 33 mg SC (n = 9)): 137 ng/mL
- Tmax ([6]; RE104 dose 33 mg SC (n = 9)): 1.07 h
- half-life ([6]; RE104 dose 33 mg SC (n = 9)): 2.79 h
- Cmax ([6]; RE104 dose 38 mg SC (n = 6)): 124 ng/mL
- Tmax ([6]; RE104 dose 38 mg SC (n = 6)): 1.08 h
- half-life ([6]; RE104 dose 38 mg SC (n = 6)): 2.79 h
- Cmax ([6]; RE104 dose 44 mg SC (n = 3)): 275 ng/mL
- Tmax ([6]; RE104 dose 44 mg SC (n = 3)): 1.25 h
- half-life ([6]; RE104 dose 44 mg SC (n = 3)): 3.76 h
- fraction unbound [7]: 0.07 to 0.2
- share of the total peak area [8]: 4.42%
- mean DEQ-High score [9]: ≤ 2
- AUC(0-t) [10]: 103 ng·h/mL
- Cmax [10]: 21.4 ng/mL
- Tmax [10]: 4 h
- AUC(0-t) [11]: 1230 ng·h/mL
- Cmax [11]: 542 ng/mL
- IC50 [12]: 42 nM
- AUC(0-t) [13]: 1010 ng·h/mL
- Cmax [13]: 360 ng/mL
- IC50 ([14]; read-out: IC50 at 5-HT2A, agonist radioligand assay): 150 nM
- Ki ([14]; read-out: binding Ki at the 5-HT2A receptor, radioligand inhibition binding, HEK-293 cells): 120 nM
- half-life ([15]; iv, 1 mg/kg): 0.631 h
- half-life ([15]; sc, 0.5 mg/kg): 0.95 h
- mean terminal half-life ([15]; RE104 IV dosing): 0.63 h
- mean terminal half-life ([15]; RE104 SC dosing): 0.95 h
- elimination half-life (t1/2) in plasma ([16]; RE104 HCl 2 mg/kg SC): 0.678 h
- half-life ([16]; plasma, iv, 2 mg/kg): 0.426 h

From patent US20250319067A1, “Improved Pharmacokinetics of Tryptamine Prodrugs” (Reunion Neuroscience, Inc., priority 2023, published 2025)
